How the values were obtained:
[1] = relative to tamoxifen in the absence of bexarotene; cited from earlier work
[2] = oral; cited from earlier work
RARs = assay: RAR activation and subtype selectivity; format: cell-based
From the text: (§1) The selection of a retinoid component useful in accordance with the present invention can be accomplished using straightforward, conventional testing and/or assays, such as the transactivation assays set forth in Evans et al., U.S. Pat. No. 5,217,867; 5,262,300; 5,310,662; and 5,906,920, each of which is hereby incorporated in its entirety herein by reference, which are well known in the art. Such testing and/or assays can identify suitable useful retinoid components without undue experimentation.
Other well known and straightforward test methods and/or assays may be employed to determine the selectivity or specificity of an RAR active compound to RAR-alpha, RAR-beta and RAR-gamma. For example, using conventional and well known assays, for example, such as set forth in Klein et al. U.S. Pat. No. 5,776,699, the disclosure of which is incorporated in its entirety herein by reference, and/or the above-noted Evans et al. patents, the selectively or specificity of a compound to RAR-alpha, RAR-beta and RAR-gamma can be determined. Based on the results of such assays, one can determine whether or not a compound is useful in accordance with one or more aspects of the present invention.

[3] = Food effect on pharmacokinetics of tazarotenic acid after 6.3 mg oral tazarotene (high-fat breakfast vs 8-10 hour fast); format: in vivo, human; settings: fed (high-fat meal) vs fasted
Procedure: For the purposes of this application, the bioavailability of a drug may be based on the human pharmokinetic parameters of maximum blood concentration (Cmax) and Area under the blood concentration-time curve (AUC).
The LC-MS/MS test for simultaneous detection of tazarotene and tazarotenic acid may be run as follows. One ml of plasma (EDTA-treated) is diluted with 1.0 ml of water. Diluted plasma is extracted using solid phase extraction (SPE) on a C18 cartridge. The eluate is evaporated, reconstituted in a water/methanol-based mobile phase, and injected onto a 4.6×50 mm, 3 μm pore size C-8 reverse phase high pressure liquid chromatography (HPLC) column (Agilent, Wilmington, Del.). Compounds are gradient-eluted at 1.2 mL/min and detected using an API 3000 triple quadrupole mass spectrometer with an Atmospheric Pressure Chemical Ionization (APCI) source (PE-Sciex, Concord, Ontario, Canada). […] The specific precursor-product ion pair monitored are m/z 352→324 for tazarotene, m/z […] for the tazarotene internal standard, m/z 324→294 for tazarotenic acid, and m/z 331→298 for the tazarotenic acid internal standard. The lower limit of quantitation at assay range tested is 0.1 ng/mL, with a coefficient of variation and deviation from nominal concentration of <15%.

RXRs = assay: RXR activation; format: cell-based
From the text: as §1
In other aspects of the present invention, one or more compounds, for example, from a screening library of compounds, which are known to have or have been tested, using conventional and well known techniques, and found to have useful RAR activity, can be individually or collectively tested for RXR activity using conventional and well known testing procedures. See, for example, the above-noted Evans et al. patents, in particular U.S. Pat. No. 5,906,920.

sebaceous glands = settings: severe acne; cited from earlier work
[4] = tested on: patients with severe nodulocystic acne; assay: Multicenter double-blind placebo-controlled study of oral tazarotene in severe nodulocystic acne; format: in vivo, human
From the text: A multicenter, double-blind, randomized, placebo-controlled parallel-group study is undertaken to determine the efficacy of orally administered tazarotene in treating severe nodulocystic acne.
In addition, washout periods for other medications for this study are: 1 week for vitamin A supplements >5000 IU; 2 weeks for topical anti-acne medications (e.g., retinoids, azelaic acid, benzoyl peroxide); 2 weeks for topical or systemic antibiotic therapy that may alter the course of acne; and 6 months for systemic retinoids.
Patients are randomized to receive placebo or oral tazarotene (0.75, 1.5, 3, or 6 mg), in a 1:1:1:1:1 ratio once daily for 24 weeks. After this, the patients are followed without treatment for an additional 12 weeks. Patients discontinuing from the treatment period due to adverse effects or lack of efficacy are eligible for entry into the post-treatment phase.
In the study, overall acne severity is rated as: none (no inflammatory acne lesions); mild (few to several papules or pustules, no nodulocystic lesions); moderate (several to many papules or pustules, few to several nodulocystic lesions); and severe (numerous or extensive papules or pustules, many, for example, at least about 5 or at least about 10, nodulocystic lesions).
Treatment success is defined as at least moderate (about 50%) improvement on the following 7-point global response scale: • 0=completely cleared • 1=almost cleared (about 90% improvement) • 2=marked response (about 75% improvement) • 3=moderate response (about 50% improvement) • 4=slight response (about 25% improvement) • 5=condition unchanged • 6=condition worsened
In this study, facial nodulocystic lesion count includes lesions greater than 5 mm in size. Facial papular/pustular lesion count includes lesions less than or equal to 5 mm in size. Facial non-inflammatory lesion count includes open and closed comedones.
Sebum output is assessed every 4 weeks at selected centers using the Sebutape® patches, sold by Cuderm Corporation. Urinalysis, chemistry, and hematology values are monitored. Bone formation and resorption assessments (serum bone alkaline phosphatase and serum amino terminal telopeptides, respectively) at selected centers are monitored.
Bone mineral density of spine and proximal femur at selected centers is monitored. Ligament calcification or osteophyte formation (lateral X-ray of the cervical and thoracic spine, and ankle calcaneous) is monitored. Epiphyseal growth plate closure (internal oblique X-ray of the ankle in patients less than or equal to 21 years old) is monitored.

[5] = tested on: patients having nodulocystic acne; assay: Two placebo-controlled dose-ranging safety studies of oral tazarotene in nodulocystic acne; format: in vivo, human; settings: for Emotional lability, patients: all cases mild
Procedure: Two placebo-controlled dose-ranging studies are conducted to evaluate the safety of oral tazarotene in patients having nodulocystic acne. In the first study, patients receive orally administered tazarotene at daily doses of 0.4 mg to 2.8 mg in 96 (71+25) patients (12 weeks treatment plus 12 weeks post-treatment). In the second study, daily doses of 0.75 mg to 6 mg tazarotene are administered to 181 patients (24 weeks treatment plus 12 weeks post-treatment).

patients = assay: Two 24-week placebo-controlled safety studies of oral tazarotene plus 16- to 24-week dose-response evaluations; format: in vivo, human; settings: 4.5 mg orally once daily
Procedure: Two multicenter, double-blind, randomized, placebo-controlled 24-week studies of identical design are conducted to evaluate the safety of oral tazarotene. In addition, 16- to 24-week dose-response evaluations are performed.
In the two safety trials, the incidence of adverse side effects with a 4.5 mg dose administered orally once daily is compared to the incidence of the same side effects with a placebo. […] The majority of these were mild in severity and typical of adverse effects associated with oral retinoids.

[6] = tested on: patients with moderate to very severe plaque psoriasis; assay: Open-label extension study of oral tazarotene in plaque psoriasis non-responders; format: in vivo, human; settings: 4.5 mg once daily, extension treatment period, across both groups
Procedure: Two multicenter, double-blind, placebo-controlled studies ware conducted to evaluate the efficacy and safety of oral tazarotene (4.5 mg once daily) in patients with moderate to very severe plaque psoriasis. […] Efficacy evaluations include overall lesional assessment (OLA), percent body surface area involvement, global response to treatment, plaque elevation, scaling, and erythema. OLA is graded on a 6-point scale (0=none, 1=minimal, 2=mild, 3=moderate, 4=severe, 5=very severe).

In the case of `C=C(c1ccc(C(=O)O)cc1)c1cc2c(cc1C)C(C)(C)CCC2(C)C` [bexarotene], the “Plasma concentration of coadministered tamoxifen” value [1] is listed as “reduced plasma concentration of tamoxifen” and the “Bioavailability in the presence of food” value [2] is listed as “increased in the presence of food”.
With `CC1(C)CCSc2ccc(C#Cc3ccc(C(=O)O)cn3)cc21` [tazarotenic acid] the RAR subtype selectivity (RARs) was “selectivity for RAR-β and RAR-γ”, the “Cmax average ratio (test/reference) of tazarotenic acid” value ([3]; Day 0) was 1.00 and the “Cmax average ratio (test/reference) of tazarotenic acid” value ([3]; Day 9) was 0.829. For the same molecule, the “Activation of the RXRs” value (RXRs) was “does not activate”.
For `CC1=C(/C=C/C(C)=C/C=C/C(C)=C\C(=O)O)C(C)(C)CCC1` [isotretinoin], the “Decrease in sebum secretion rate” value (sebaceous glands) is given as “about 90%” and the “Bioavailability in the presence of food” value [2] is given as “increased in the presence of food”.
In the case of `CCOC(=O)c1ccc(C#Cc2ccc3c(c2)C(C)(C)CCS3)nc1` [tazarotene], the “Patients withdrawing due to adverse events, treatment period” value (“Patients withdrawing due” below) ([4]; 0.75 mg group (2/35)) is reported as 6%, the “Patients withdrawing due” value ([4]; 1.5 mg group (0/37)) is reported as 0% and the “Patients withdrawing due” value ([4]; 3 mg group (2/37)) is reported as 5%. The “Patients withdrawing due” value ([4]; 6 mg group (1/36)) was 3%, the “Reduction of overall acne severity vs placebo” value ([4]; 6 mg, from week 16 until end of post-treatment phase (p ≦0.01)) was “significantly more than placebo” and the “Abnormalities in liver function test results or elevated triglycerides, total cholesterol, or HDL cholesterol” value ([4]; 0.75 to 6 mg once daily, 24 weeks) was “not generally associated”. The “Sebum secretion (Sebutape method) relative to placebo” value ([4]; 0.75 to 6 mg once daily, assessed every 4 weeks) was “does not substantially reduce sebum secretion”, the Severe dry skin ([5]; 3 mg and 6 mg groups) was “No patient” and the “Emotional lability, patients” value ([5]; 3 mg group (1 patient)) was 3%. The “Depression, patients” value ([5]; 3 mg group (3 patients: 2 mild, 1 severe)) was 8%, the “Emotional lability, patients” value ([5]; 6 mg group (5 patients)) was 14% and the “Changes in urinalysis, chemistry, or hematology measures (liver function tests, triglycerides, total cholesterol, HDL cholesterol)” value ([5]; 0.4 to 6 mg daily) was “no consistent dose-related clinically significant changes”. For the same molecule, the “Ligament calcification, osteophyte formation, changes in serum bone alkaline phosphatase, serum amino terminal telopeptides, bone density” value ([5]; 0.4 to 6 mg daily) was “not associated with any clinically significant”, the “Patients withdrawing from either study due to adverse events” value ([5]; all groups of both studies incl. placebo (7/277)) was 2.5% and the “Incidence of altered hormone levels (elevated TSH and T4, decreased T4, abnormal thyroid function test)” value (patients) was 0%. The “Incidence of hypertriglyceridemia, hypercholesterolemia, abnormal liver function tests, increased ALT, increased AST, desquamation, eye dryness, alopecia” value (patients; vs placebo) was “essentially the same incidence with oral tazarotene as with placebo”, the Incidence of arthralgia [6] was 20% and the Incidence of asthenia [6] was 6%. For the same molecule, the “Incidence of back pain” value [6] was 11%, the Incidence of cheilitis [6] was 70% and the “Incidence of dry skin” value [6] was 25%. The Incidence of headache [6] was 11%, the Incidence of hypertriglyceridemia [6] was 6% and the Incidence of infection [6] was 10%. It also gave an Incidence of myalgia [6] of 15%.
In the case of `CC1(C)CC[S+]([O-])c2ccc(C#Cc3ccc(C(=O)O)cn3)cc21` (stereo not drawn) [AGN 190844], the “Activation of the RARs” value (RARs) is reported as “does not activate” and the “Activation of the RXRs” value (RXRs) is reported as “does not activate”.
For `COc1cc(C)c(/C=C/C(C)=C/C=C/C(C)=C/C(=O)O)c(C)c1C` [acitretin], the “Bioavailability in the presence of food” value [2] is given as “increased in the presence of food”.
